Data taken from ChEMBL document CHEMBL1201862, “PubChem BioAssay data set” (2004).
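Following 48 hours of exposure in 96-well plates, responses at five concentrations were used to interpolate endpoints linearly. GI50 is the concentration that inhibits growth by half.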 Active and inactive are the calls of the source. Rule as the data show it: active = GI50 up to about 1.1 µM and inactive = higher.

Key:
Experiment in all cases: NCI anticancer screen, dose series, 48 h
ACHN = test system: ACHN
HCT-116 = test system: HCT-116
Hs-578T = test system: Hs-578T
IGROV-1 = test system: IGROV-1
K562 = test system: K562
MOLT-4 = test system: MOLT-4
NCI-H522 = test system: NCI-H522
OVCAR-5 = test system: OVCAR-5
OVCAR-8 = test system: OVCAR-8
SF-295 = test system: SF-295
TK-10 = test system: TK-10
U-251 = test system: U-251
UACC-257 = test system: UACC-257
CAKI-1 = test system: CAKI-1
HT-29 = test system: HT-29
NCI-H226 = test system: NCI-H226
SK-MEL-2 = test system: SK-MEL-2
BT-549 = test system: BT-549
Malme-3M = test system: Malme-3M

Measured: GI50

COc1ccc2[nH]c3c(c2c1)CCn1c-3nc2ccccc2c1=O
inactive: ACHN > 25 µM | HCT-116 > 25 µM | Hs-578T > 25 µM | IGROV-1 > 25 µM | K562 > 25 µM | MOLT-4 > 25 µM | NCI-H522 > 25 µM | OVCAR-5 > 25 µM | OVCAR-8 > 25 µM | SF-295 > 25 µM | TK-10 > 25 µM | U-251 > 25 µM | UACC-257 > 25 µM

CC(C)[Si](OC12CCC(CC1O)CC2CO)(C(C)C)C(C)C (configuration not stated)
inactive: ACHN 14.2 µM | CAKI-1 18.7 µM | HCT-116 8 µM | HT-29 15.5 µM | K562 14.7 µM | MOLT-4 11.5 µM | NCI-H226 17.3 µM | OVCAR-5 17.4 µM | OVCAR-8 16.2 µM | SF-295 12.2 µM | SK-MEL-2 15.8 µM | TK-10 14.4 µM | U-251 12.6 µM | UACC-257 13.7 µM

O=C(O)c1ccc(/N=C(\C(=N\c2ccc(C(=O)O)cc2)c2ccccc2)c2ccccc2)cc1
inactive: ACHN > 100 µM | BT-549 33.5 µM | HCT-116 > 100 µM | Hs-578T > 100 µM | IGROV-1 > 100 µM | K562 > 100 µM | MOLT-4 > 100 µM | NCI-H226 > 100 µM | OVCAR-5 > 100 µM | OVCAR-8 > 100 µM | SF-295 > 100 µM | SK-MEL-2 > 100 µM | TK-10 > 100 µM | U-251 > 100 µM | UACC-257 > 100 µM

OC1(C(Sc2ccccc2)Sc2ccccc2)CCCCCC1
inactive: ACHN 26 µM | CAKI-1 12.2 µM | HCT-116 27.8 µM | K562 > 10 µM | MOLT-4 28.6 µM | NCI-H522 11.5 µM | OVCAR-8 38.8 µM | SF-295 26.8 µM | SK-MEL-2 18.1 µM | TK-10 58.2 µM | U-251 21.8 µM | UACC-257 26.9 µM

c1ccc(C(c2ccccc2)c2ccncc2)cc1
inactive: ACHN > 100 µM | CAKI-1 > 100 µM | HCT-116 > 100 µM | HT-29 75.9 µM | IGROV-1 > 100 µM | K562 > 100 µM | MOLT-4 > 100 µM | Malme-3M > 100 µM | NCI-H226 > 100 µM | OVCAR-5 > 100 µM | OVCAR-8 > 100 µM | SF-295 > 100 µM | SK-MEL-2 > 100 µM | TK-10 > 100 µM | U-251 > 100 µM | UACC-257 61 µM

[O-][n+]1onc2c1CCC(=N\O)/C2=N/Nc1ccccc1
inactive: ACHN > 100 µM | CAKI-1 > 100 µM | HCT-116 > 100 µM | HT-29 > 100 µM | Hs-578T > 100 µM | IGROV-1 > 100 µM | K562 > 100 µM | MOLT-4 > 100 µM | Malme-3M > 100 µM | NCI-H226 > 100 µM | NCI-H522 > 100 µM | OVCAR-5 > 100 µM | OVCAR-8 > 100 µM | SF-295 > 100 µM | SK-MEL-2 > 100 µM | TK-10 > 100 µM | UACC-257 > 100 µM

CCCCCCCCCC(=O)NC(CCC(=O)N(CCNC(=O)c1nc(-c2ccccc2)oc1-c1ccccc1)Cc1ccccc1)C(=O)O (configuration not stated)
inactive: ACHN 18.8 µM | BT-549 19.3 µM | CAKI-1 16.7 µM | HCT-116 17.7 µM | HT-29 18 µM | IGROV-1 19.5 µM | MOLT-4 22.4 µM | Malme-3M 16.4 µM | NCI-H226 23.8 µM | NCI-H522 18.5 µM | OVCAR-5 17.1 µM | OVCAR-8 17.5 µM | SF-295 18.1 µM | TK-10 22.4 µM | U-251 18.9 µM | UACC-257 23.4 µM

c1ccc(C[N+]23C(CC[C@H]2c2ccccc2)CC[C@H]3c2ccccc2)cc1 (some centres not stated)
inactive: ACHN > 100 µM | CAKI-1 > 100 µM | HCT-116 28.8 µM | HT-29 17.9 µM | Hs-578T 49.5 µM | IGROV-1 21.6 µM | K562 9.38 µM | MOLT-4 27.9 µM | Malme-3M 18.2 µM | NCI-H226 22.1 µM | NCI-H522 18 µM | OVCAR-5 86.1 µM | OVCAR-8 30.2 µM | SF-295 35.3 µM | SK-MEL-2 29.9 µM | TK-10 74.1 µM | U-251 25.3 µM | UACC-257 6.24 µM

COc1cccc2cc(C(N)=O)c(=N)oc12
inactive: ACHN 40.3 µM | BT-549 > 100 µM | CAKI-1 39.4 µM | HCT-116 28.6 µM | HT-29 48.4 µM | Hs-578T 31.5 µM | IGROV-1 35.5 µM | K562 > 100 µM | MOLT-4 > 100 µM | Malme-3M 19.2 µM | NCI-H226 96.2 µM | OVCAR-5 51.3 µM | OVCAR-8 50 µM | SK-MEL-2 22.9 µM | U-251 81.5 µM | UACC-257 > 100 µM
